pIC50: −log10 of the molar value.
Legend:
[1] = target: acetylcholinesterase (Homo sapiens, UniProt P22303); test: Cholinesterase inhibition assay (photometric method of Ellman et al.); format: biochemical; details: read-out: Cholinesterase Inhibition IC50 (molar conc.)
[2] = tested on: scopolamine induced memory deficit in mice; test: Dark Avoidance Assay (reversal of scopolamine induced memory deficit); format: in vivo; details: retest after 24 hours
Method: This utility can also be ascertained by determining the ability of these compounds to restore cholinergically deficient memory in the Dark Avoidance Assay. In this assay mice are tested for their ability to remember an unpleasant stimulus for a period of 24 hours. A mouse is placed in a chamber that contains a dark compartment; a strong incadescent light drives it to the dark compartment, where an electric shock is administered through metal plates on the floor. The animal is removed from the testing apparatus and tested again, 24 hours later, for the ability to remember the electric shock.
If scopolamine, an anticholinergic that is known to cause memory impairment, is administered before an animal's initial exposure to the test chamber, the animal re-enters the dark compartment shortly after being placed in the test chamber 24 hours later. This effect of scopolamine is blocked by an active test compound, resulting in a greater interval before re-entry into the dark compartment.
The results for an active compound are expressed as the percent of a group of animals in which the effect of scopolamine is blocked, as manifested by an increased interval between being placed in the test chamber and re-entering the dark compartment.

[3] = tested on: 2-phenyl-1,4-benzoquinone-induced writhing in mice; test: 2-phenyl-1,4-benzoquinone-induced writhing test in mice (analgesia); format: in vivo
Text: The compounds of Formula I of the present invention are useful as analgesic agents due to their ability to alleviate pain in mammals. […] Exptl. Biol. Med., 95, 729 (1957)].

Sequence of acetylcholinesterase (P22303 32-614): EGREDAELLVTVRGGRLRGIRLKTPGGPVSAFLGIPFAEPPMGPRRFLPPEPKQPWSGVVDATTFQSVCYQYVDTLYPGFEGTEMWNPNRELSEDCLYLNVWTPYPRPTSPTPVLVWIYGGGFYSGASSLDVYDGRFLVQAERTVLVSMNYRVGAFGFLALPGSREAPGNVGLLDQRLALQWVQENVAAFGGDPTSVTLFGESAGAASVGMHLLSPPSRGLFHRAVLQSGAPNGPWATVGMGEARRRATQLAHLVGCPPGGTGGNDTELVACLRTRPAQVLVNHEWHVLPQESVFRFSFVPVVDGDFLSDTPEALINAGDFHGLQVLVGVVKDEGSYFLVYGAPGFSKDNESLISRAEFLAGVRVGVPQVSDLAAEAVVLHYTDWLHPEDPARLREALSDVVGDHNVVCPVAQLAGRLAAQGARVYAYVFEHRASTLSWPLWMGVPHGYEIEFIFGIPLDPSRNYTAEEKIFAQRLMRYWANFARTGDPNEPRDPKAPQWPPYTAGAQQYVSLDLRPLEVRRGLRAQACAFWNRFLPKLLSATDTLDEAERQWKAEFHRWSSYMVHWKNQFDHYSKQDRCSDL

c1ccc2c(c1)NC1CCCc3onc-2c31 (stereo not shown) [4,5,5a,6-Tetrahydro-3H-isoxazolo[5,4,3-kl]acridine]
pIC50 [1]: 4.89

c1ccc2c(c1)nc1c3c(onc32)CCC1 [4,5-Dihydro-3H-isoxazolo[5,4,3-kl]acridine]
pIC50 [1]: 5.41
% of animals with scopolamine induced memory deficit reversal ([2]; 0.63 mg/kg body weight): 20%

C=CCN1c2ccccc2-c2noc3c2C1CCC3 (stereo not shown) [6-(2-Propenyl)-4,5,5a,6-tetrahydro-3H-isoxazolo[5,4,3-kl]acridine]
% of animals with scopolamine induced memory deficit reversal ([2]; 1.25 mg/kg body weight): 27%

CCNC(=O)N1c2ccccc2-c2noc3c2C1CCC3 (stereo not shown) [6-Ethylaminocarbonyl-4,5,5a,6-tetrahydro-3H-isoxazolo[5,4,3-kl]acridine]
Analgesic PQW % Inhibition of Writhing at 20 mg/kg., S.C. [3]: 44%

C#CCNC(=O)N1c2ccccc2-c2noc3c2C1CCC3 (stereo not shown) [N-(2-Propynyl)-4,5,5a,6-tetrahydro-3H-isoxazolo-[5,4,3-kl]acridine-6-carboxamide]
Analgesic PQW % Inhibition of Writhing at 20 mg/kg., S.C. [3]: 29%

O=C(NCCN1CCOCC1)N1c2ccccc2-c2noc3c2C1CCC3 (stereo not shown) [N-[2-(4-Morpholinyl)ethyl]-4,5,5a,6-tetrahydro-3H-isoxazolo[5,4,3-kl]acridine-6-carboxamide]
Analgesic PQW % Inhibition of Writhing at 20 mg/kg., S.C. [3]: 52%

O=C(NCC#CCN1CCCC1)N1c2ccccc2-c2noc3c2C1CCC3 (stereo not shown) [N-[4-(1-Pyrrolidinyl)-2-butyn-1-yl]-4,5,5a,6-tetrahydro-3H-isoxazolo[5,4,3-kl]acridine-6-carboxamide]
Analgesic PQW % Inhibition of Writhing at 20 mg/kg., S.C. [3]: 33%

CNC(=O)Oc1ccc2c(c1)[C@]1(C)CCN(C)[C@@H]1N2C [Physostigmine, reference compound]
% of animals with scopolamine induced memory deficit reversal ([2]; 0.31 mg/kg body weight, reference): 20%

CCC(=O)O[C@](Cc1ccccc1)(c1ccccc1)[C@H](C)CN(C)C [Propoxyphene, reference compound]
Analgesic PQW % Inhibition of Writhing ([3]; 3.9 mg/kg, s.c., reference compound): 50%

Reference: US4920117A, “4,5,5a,6-tetrahydro-3H-isoxazolo(5,4,3-kl)acridines, pharmaceutical compositions and use” (Hoechst-Roussel Pharmaceuticals Inc., priority 1989, dated 1990)
